Source: ChEMBL document CHEMBL6182861, “Structural modification of heptamethine indocyanine dyes with improved aqueous solubility and stability for photothermal therapy” (Eur J Med Chem, 2025)
The source made the active and inactive calls. No cut-off for these calls is given here.

How the values were obtained:
[1] = system: HepG2; assay: Induction of apoptosis in human HepG2 cells at 3.12 uM incubated for 4 hrs followed by exposure to laser irradiation of 808 nm for 2 mins by Annexin V-FITC/PI staining based flow cytometry; assay type: functional, cell-based; conditions: time 242.0 min
[2] = system: 4T1; assay: Photothermal cytotoxicity against mouse 4T1 cells up to 25 uM preincubated for 4 hrs followed by exposure to laser irradiation of 808 nm for 2 mins and subsequent incubation for 20 hrs by MTT assay; assay type: functional, cell-based
[3] = system: Mitochondrial membrane; assay: Inhibition of mitochondrial membrane potential in mouse 4T1 cells assessed as green fluorescence at 3.12 uM preincubated for 4 hrs followed by exposure to laser irradiation of 808 nm for 2 mins and subsequent incubation for 20 hrs by JC-1 dye based analysis; assay type: cell membranes; conditions: time 1442.0 min
[4] = system: 4T1; assay: Induction of ROS generation in mouse 4T1 cells at 3.12 uM incubated for 4 hrs followed by exposure to laser irradiation of 808 nm for 2 mins by DCFH-DA probe based CLSM; assay type: functional, cell-based; conditions: time 242.0 min
[5] = system: Mitochondrial membrane; assay: Inhibition of mitochondrial membrane potential in mouse 4T1 cells at 3.12 uM preincubated for 4 hrs followed by exposure to laser irradiation of 808 nm for 2 mins and subsequent incubation for 20 hrs by flow cytometry; assay type: cell membranes; conditions: time 1442.0 min
[6] = Photosensitizing property of compound assessed as generation of singlet-state oxygen at 10 uM exposed to laser irradiation of 808 nm for 2 mins by SOSG probe based analysis; assay type: functional
[7] = system: Mitochondrial membrane; assay: Inhibition of mitochondrial membrane potential in human HepG2 cells at 3.12 uM preincubated for 4 hrs followed by exposure to laser irradiation of 808 nm for 2 mins and subsequent incubation for 20 hrs by flow cytometry; assay type: cell membranes; conditions: time 1442.0 min
[8] = system: Mitochondrial membrane; assay: Inhibition of mitochondrial membrane potential in human HepG2 cells at 3.12 uM preincubated for 4 hrs followed by exposure to laser irradiation of 808 nm for 2 mins and subsequent incubation for 20 hrs by Rh123 probe based CLSM; assay type: cell membranes; conditions: time 1442.0 min
[9] = Drug uptake in human HepG2 cells assessed as increase in fluorescence intensity at 3.12 uM incubated for 4 hrs by CLSM; assay type: ADME, cell-based; conditions: hepg2, 4 h
[10] = system: Mitochondrial membrane; assay: Inhibition of mitochondrial membrane potential in human HepG2 cells assessed as green fluorescence at 3.12 uM preincubated for 4 hrs followed by exposure to laser irradiation of 808 nm for 2 mins and subsequent incubation for 20 hrs by JC-1 dye based analysis; assay type: cell membranes; conditions: time 1442.0 min
[11] = system: Mitochondrial membrane; assay: Inhibition of mitochondrial membrane potential in mouse 4T1 cells at 3.12 uM preincubated for 4 hrs followed by exposure to laser irradiation of 808 nm for 2 mins and subsequent incubation for 20 hrs by Rh123 probe based CLSM; assay type: cell membranes; conditions: time 1442.0 min
[12] = system: Mitochondrial membrane; assay: Inhibition of mitochondrial membrane potential in mouse 4T1 cells at 3.12 uM incubated for 24 hrs by Rh123 probe based CLSM; assay type: cell membranes
[13] = Drug uptake in mouse 4T1 cells assessed as increase in fluorescence intensity at 3.12 uM incubated for 4 hrs by flow cytometry; assay type: ADME, cell-based; conditions: 4t1, 4 h
[14] = Photothermal property of compound assessed as increase in photothermal conversion efficiency at 20 uM exposed to laser irradiation of 808 nm for 2 mins; assay type: functional
[15] = Drug uptake in mouse 4T1 cells assessed as increase in fluorescence intensity at 3.12 uM incubated for 4 hrs by CLSM; assay type: ADME, cell-based; conditions: 4t1, 4 h
[16] = system: Mitochondrial membrane; assay: Inhibition of mitochondrial membrane potential in human HepG2 cells at 3.12 uM incubated for 24 hrs by flow cytometry; assay type: cell membranes
[17] = system: Mitochondrial membrane; assay: Inhibition of mitochondrial membrane potential in human HepG2 cells at 3.12 uM incubated for 24 hrs by Rh123 probe based CLSM; assay type: cell membranes
[18] = system: Mitochondrial membrane; assay: Inhibition of mitochondrial membrane potential in mouse 4T1 cells at 3.12 uM incubated for 24 hrs by flow cytometry; assay type: cell membranes
[19] = system: 4T1; assay: Induction of ROS generation in mouse 4T1 cells at 3.12 uM incubated for 4 hrs followed by exposure to laser irradiation of 808 nm for 2 mins by flow cytometry; assay type: functional, cell-based; conditions: time 242.0 min
[20] = Photothermal stability of compound at 60 degreeC at 20 uM exposed to laser irradiation of 808 nm for 2.5 mins; assay type: physicochemical
[21] = Drug uptake in human HepG2 cells assessed as increase in fluorescence intensity at 3.12 uM incubated for 4 hrs by flow cytometry; assay type: ADME, cell-based; conditions: hepg2, 4 h
[22] = Photosensitizing property of compound assessed as generation of singlet-state oxygen by ESR spectrometry; assay type: functional
[23] = system: HepG2; assay: Induction of ROS generation in human HepG2 cells at 3.12 uM incubated for 4 hrs followed by exposure to laser irradiation of 808 nm for 2 mins by DCFH-DA probe based CLSM; assay type: functional, cell-based; conditions: time 242.0 min
[24] = system: HepG2; assay: Photothermal cytotoxicity against human HepG2 cells up to 25 uM preincubated for 4 hrs followed by exposure to laser irradiation of 808 nm for 2 mins and subsequent incubation for 20 hrs by MTT assay; assay type: functional, cell-based; conditions: time 1442.0 min
[25] = system: 4T1; assay: Induction of apoptosis in mouse 4T1 cells at 3.12 uM incubated for 4 hrs followed by exposure to laser irradiation of 808 nm for 2 mins by Annexin V-FITC/PI staining based flow cytometry; assay type: functional, cell-based; conditions: time 242.0 min
[26] = system: HepG2; assay: Induction of ROS generation in human HepG2 cells at 3.12 uM incubated for 4 hrs followed by exposure to laser irradiation of 808 nm for 2 mins by flow cytometry; assay type: functional, cell-based; conditions: time 242.0 min
[27] = system: HepG2; assay: Cytotoxicity against human HepG2 cells under dark condition at 3.12 uM incubated for 24 hrs by MTT assay; assay type: functional, cell-based
[28] = system: 4T1; assay: Cytotoxicity against mouse 4T1 cells under dark condition at 3.12 uM incubated for 24 hrs by MTT assay; assay type: functional, cell-based
[29] = Aqueous solubility of compound by absorbance based assay; assay type: physicochemical; conditions: buffer

Drug uptake [9]	Drug uptake [13]	Drug uptake [15]	Stability [20]	Drug uptake [21]	Structure (SMILES)	Activity [1]	Activity [4]	inhibition [5]	Activity [6]	inhibition [7]	inhibition [8]	inhibition [11]	inhibition [12]	inhibition [16]	inhibition [17]	inhibition [18]	Activity [19]	Activity [22]	Activity [23]	Activity [25]	also measured
Active	Active	Active	Unstable	Active	COCCOCCOCCN1/C(=C/C=C/C=C/C=C/C2=[N+](CCOCCOCCOC)c3ccccc3C2(C)C)C(C)(C)c2ccccc21.[I-]	Active	Active; Exhibited Highest Activity Among Tested Compounds	Active; Significant Inhibition Was Observed	Active	Active; Significant Inhibition Was Observed	Active; Significant Inhibition Was Observed	Active; Significant Inhibition Was Observed	Active; Certain Degree Of Inhibition Was Observed	Active; Certain Degree Of Inhibition Was Observed	Active; Certain Degree Of Inhibition Was Observed	Active; Certain Degree Of Inhibition Was Observed	Active; Exhibited Highest Activity Among Tested Compounds	Active	Active; Exhibited Highest Activity Among Tested Compounds	Active	Activity [2]: Active; Compound Was Less Photo-Thermally Effective But Showed Stronger Cell-Killing Ability; inhibition [3]: Active; inhibition [10]: Active; Activity [14]: 5.2%; Activity [24]: Active; Compound Was Less Photo-Thermally Effective But Showed Stronger Cell-Killing Ability; Activity [26]: Active; Exhibited Highest Activity Among Tested Compounds
Active	Active	Active	Stable	Active	COCCOCCOCCN1/C(=C/C=C/C(C#N)=C/C=C/C2=[N+](CCOCCOCCOC)c3ccccc3C2(C)C)C(C)(C)c2ccccc21.[I-]	Active	Active	Active; Significant Inhibition Was Observed	Active	Active; Significant Inhibition Was Observed	Active; Significant Inhibition Was Observed	Active; Significant Inhibition Was Observed	Active; Certain Degree Of Inhibition Was Observed	Active; Certain Degree Of Inhibition Was Observed	Active; Certain Degree Of Inhibition Was Observed	Active; Certain Degree Of Inhibition Was Observed	Active	Active	Active	Active	inhibition [3]: Active; Activity [27]: Active; inhibition [10]: Active; Activity [28]: Active; Activity [14]: 0.7%; solubility [29]: soluble; Activity [26]: Active
Active	Active	Active	Stable	Active	CN1/C(=C/C=C/C(C#N)=C/C=C/C2=[N+](C)c3ccccc3C2(C)C)C(C)(C)c2ccccc21.[I-]	Active	Active	Active; Significant Inhibition Was Observed	Active	Active; Significant Inhibition Was Observed	Active; Significant Inhibition Was Observed	Active; Significant Inhibition Was Observed	Active; Certain Degree Of Inhibition Was Observed	Active; Certain Degree Of Inhibition Was Observed	Active; Certain Degree Of Inhibition Was Observed	Active; Certain Degree Of Inhibition Was Observed	Active	Active	Active	Active	inhibition [3]: Active; Activity [27]: Active; inhibition [10]: Active; Activity [28]: Active; Activity [26]: Active

Further lines, the compound ahead of its results:

Structure (SMILES)	Drug uptake [9]	Drug uptake [13]	Drug uptake [15]	Stability [20]	Drug uptake [21]	Activity [1]	Activity [4]	inhibition [5]	Activity [6]	inhibition [7]	inhibition [8]	inhibition [11]	inhibition [12]	inhibition [16]	inhibition [17]	inhibition [18]	Activity [19]	Activity [22]	Activity [23]	Activity [25]	also measured
CC1(C)C(/C=C/C=C/C=C/C=C2\N(CCCCS(=O)(=O)O)c3ccc4ccccc4c3C2(C)C)=[N+](CCCCS(=O)(=O)[O-])c2ccc3ccccc3c21									inactive									Active			
CN1/C(=C/C=C/C=C/C=C/C2=[N+](C)c3ccccc3C2(C)C)C(C)(C)c2ccccc21.[I-]	Active	Active	Active	Unstable	Active	Active	Active	Active; Significant Inhibition Was Observed	Active	Active; Significant Inhibition Was Observed	Active; Significant Inhibition Was Observed	Active; Significant Inhibition Was Observed	Active; Certain Degree Of Inhibition Was Observed	Active; Certain Degree Of Inhibition Was Observed	Active; Certain Degree Of Inhibition Was Observed	Active; Certain Degree Of Inhibition Was Observed	Active	Active	Active	Active	Activity [2]: inactive; solubility [29]: Insoluble; Activity [24]: inactive; Activity [26]: Active
